# According to publication PMC9898036, “VIP152 is a selective CDK9 inhibitor with pre-clinical in vitro and in vivo efficacy in chronic lymphocytic leukemia” (Leukemia, 2022):
# Legend:
# Format in all cases: binding
# Neuropeptide Y Y2 = Neuropeptide Y Y2 (Homo sapiens, UniProt P49146); assay: Eurofins Diversity Panel; conditions: hum, Conc. 10 μM
# TLK1 = TLK1 (Homo sapiens, UniProt Q9UKI8); assay: KINOMEscan: TLK1; conditions: 100 nM, read-out: Percent Control
# Thyroid Hormone = assay: Eurofins Diversity Panel; conditions: rat, Conc. 10 μM
# BLK = BLK (Homo sapiens, UniProt P51451); assay: KINOMEscan: BLK; conditions: 1000 nM, read-out: Percent Control
# Sequence of BLK (P51451 whole entry): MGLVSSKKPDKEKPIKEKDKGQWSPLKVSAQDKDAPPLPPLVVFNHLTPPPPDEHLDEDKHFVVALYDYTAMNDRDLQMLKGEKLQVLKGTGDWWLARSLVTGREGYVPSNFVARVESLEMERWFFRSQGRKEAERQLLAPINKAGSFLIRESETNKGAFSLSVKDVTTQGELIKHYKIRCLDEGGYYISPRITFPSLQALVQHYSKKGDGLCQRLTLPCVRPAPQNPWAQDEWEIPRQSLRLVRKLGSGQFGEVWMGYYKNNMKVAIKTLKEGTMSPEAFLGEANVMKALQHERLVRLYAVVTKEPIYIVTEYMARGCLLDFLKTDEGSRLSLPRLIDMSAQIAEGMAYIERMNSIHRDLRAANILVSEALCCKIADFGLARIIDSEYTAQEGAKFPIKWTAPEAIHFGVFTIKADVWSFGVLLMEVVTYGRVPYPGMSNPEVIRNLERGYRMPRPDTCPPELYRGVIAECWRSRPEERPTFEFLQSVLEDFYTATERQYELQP
# MST1 = MST1 (Homo sapiens, UniProt Q13043); assay: KINOMEscan: MST1; conditions: 1000 nM, read-out: Percent Control
# Sequence of MST1 (Q13043 whole entry): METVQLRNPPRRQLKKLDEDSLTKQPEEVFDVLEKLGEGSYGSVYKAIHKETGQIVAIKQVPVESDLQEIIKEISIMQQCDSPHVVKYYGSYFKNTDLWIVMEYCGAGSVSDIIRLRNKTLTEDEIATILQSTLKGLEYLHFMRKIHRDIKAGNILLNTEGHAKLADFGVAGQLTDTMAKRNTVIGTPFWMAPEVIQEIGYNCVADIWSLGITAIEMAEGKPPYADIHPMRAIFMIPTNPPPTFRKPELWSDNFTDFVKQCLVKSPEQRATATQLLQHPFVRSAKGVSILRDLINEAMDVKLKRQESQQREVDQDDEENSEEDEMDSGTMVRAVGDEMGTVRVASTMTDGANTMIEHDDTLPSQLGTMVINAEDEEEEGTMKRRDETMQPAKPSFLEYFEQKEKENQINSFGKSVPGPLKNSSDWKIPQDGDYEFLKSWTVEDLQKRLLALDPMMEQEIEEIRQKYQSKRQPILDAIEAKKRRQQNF
# ULK3 = ULK3 (Homo sapiens, UniProt Q6PHR2); assay: KINOMEscan: ULK3; conditions: 100 nM, read-out: Percent Control
# RIOK1 = RIOK1 (Homo sapiens, UniProt Q9BRS2); assay: KINOMEscan: RIOK1; conditions: 100 nM, read-out: Percent Control
# [1] = molecular target: RSK1(Kin.Dom.1-N-terminal) (Homo sapiens, UniProt Q15418); assay: KINOMEscan: RSK1(Kin.Dom.1-N-terminal); conditions: 100 nM, read-out: Percent Control
# MAPKAPK2 = MAPKAPK2 (Homo sapiens, UniProt P49137); assay: KINOMEscan: MAPKAPK2; conditions: 1000 nM, read-out: Percent Control
# CSNK1D = CSNK1D (Homo sapiens, UniProt P48730); assay: KINOMEscan: CSNK1D; conditions: 1000 nM, read-out: Percent Control
# KIT(D816H) = KIT(D816H) (Homo sapiens, UniProt P10721, D816H); assay: KINOMEscan: KIT(D816H); conditions: 1000 nM, read-out: Percent Control
# Sequence of KIT(D816H) (P10721 26-976 D816H): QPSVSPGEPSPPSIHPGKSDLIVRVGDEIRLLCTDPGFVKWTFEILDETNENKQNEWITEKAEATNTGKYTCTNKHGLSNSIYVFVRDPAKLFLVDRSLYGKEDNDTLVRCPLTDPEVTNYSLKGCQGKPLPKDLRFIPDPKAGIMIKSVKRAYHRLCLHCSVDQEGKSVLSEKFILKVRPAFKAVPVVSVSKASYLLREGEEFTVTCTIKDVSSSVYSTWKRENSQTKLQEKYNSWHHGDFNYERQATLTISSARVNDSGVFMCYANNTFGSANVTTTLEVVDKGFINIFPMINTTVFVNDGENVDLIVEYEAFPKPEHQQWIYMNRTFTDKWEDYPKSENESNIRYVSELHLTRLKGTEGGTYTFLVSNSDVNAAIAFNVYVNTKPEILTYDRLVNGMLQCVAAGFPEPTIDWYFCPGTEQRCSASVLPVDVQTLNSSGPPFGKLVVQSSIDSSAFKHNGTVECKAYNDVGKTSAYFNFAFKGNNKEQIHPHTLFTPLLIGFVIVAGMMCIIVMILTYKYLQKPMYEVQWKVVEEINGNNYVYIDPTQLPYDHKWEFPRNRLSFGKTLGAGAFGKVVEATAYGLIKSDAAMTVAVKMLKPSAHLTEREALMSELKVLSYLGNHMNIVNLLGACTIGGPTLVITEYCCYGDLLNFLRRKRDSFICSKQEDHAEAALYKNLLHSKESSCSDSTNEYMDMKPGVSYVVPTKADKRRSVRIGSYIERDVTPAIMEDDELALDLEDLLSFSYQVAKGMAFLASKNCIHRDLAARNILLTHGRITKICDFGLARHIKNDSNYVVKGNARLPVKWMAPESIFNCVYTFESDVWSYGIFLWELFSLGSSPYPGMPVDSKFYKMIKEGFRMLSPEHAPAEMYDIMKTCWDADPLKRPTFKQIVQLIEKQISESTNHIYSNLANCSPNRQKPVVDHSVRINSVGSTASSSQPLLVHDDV
# MAK = MAK (Homo sapiens, UniProt P20794); assay: KINOMEscan: MAK; conditions: 1000 nM, read-out: Percent Control
# [2] = molecular target: EGFR(L747-E749del, A750P) (Homo sapiens, UniProt P00533, A750P/DEL747-749); assay: KINOMEscan: EGFR(L747-E749del, A750P); conditions: 1000 nM, read-out: Percent Control
# Rolipram = assay: Eurofins Diversity Panel; conditions: rat, Conc. 10 μM
# EPHA1 = EPHA1 (Homo sapiens, UniProt P21709); assay: KINOMEscan: EPHA1; conditions: 1000 nM, read-out: Percent Control
# Sequence of EPHA1 (P21709 26-976): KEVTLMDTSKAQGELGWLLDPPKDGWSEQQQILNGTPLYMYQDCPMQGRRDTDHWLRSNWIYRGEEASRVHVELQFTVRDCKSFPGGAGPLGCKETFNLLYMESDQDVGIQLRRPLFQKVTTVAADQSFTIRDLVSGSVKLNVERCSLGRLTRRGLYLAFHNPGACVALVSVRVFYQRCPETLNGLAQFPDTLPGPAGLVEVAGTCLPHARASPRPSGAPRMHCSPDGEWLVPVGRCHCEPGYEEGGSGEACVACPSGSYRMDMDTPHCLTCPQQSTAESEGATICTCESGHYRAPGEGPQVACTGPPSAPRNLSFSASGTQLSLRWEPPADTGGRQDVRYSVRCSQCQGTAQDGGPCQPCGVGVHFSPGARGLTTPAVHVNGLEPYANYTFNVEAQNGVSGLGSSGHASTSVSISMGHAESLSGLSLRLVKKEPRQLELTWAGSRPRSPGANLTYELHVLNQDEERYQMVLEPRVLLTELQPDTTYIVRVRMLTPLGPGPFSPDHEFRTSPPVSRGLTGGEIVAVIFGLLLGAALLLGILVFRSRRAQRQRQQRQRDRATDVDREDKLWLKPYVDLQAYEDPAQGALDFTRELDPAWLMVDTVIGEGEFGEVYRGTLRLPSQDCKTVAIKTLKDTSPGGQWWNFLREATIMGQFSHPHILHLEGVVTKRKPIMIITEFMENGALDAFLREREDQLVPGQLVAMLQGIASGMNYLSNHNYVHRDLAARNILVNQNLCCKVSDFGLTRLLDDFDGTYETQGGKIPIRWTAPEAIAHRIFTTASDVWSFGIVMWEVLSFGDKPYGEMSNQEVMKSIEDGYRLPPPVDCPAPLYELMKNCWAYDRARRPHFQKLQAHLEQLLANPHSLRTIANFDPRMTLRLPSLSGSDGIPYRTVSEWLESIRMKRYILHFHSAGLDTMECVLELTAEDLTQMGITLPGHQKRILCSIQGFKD
# RET = RET (Homo sapiens, UniProt P07949); assay: KINOMEscan: RET; conditions: 100 nM, read-out: Percent Control
# CSF1R-autoinhibited = CSF1R-autoinhibited (Homo sapiens, UniProt P07333); assay: KINOMEscan: CSF1R-autoinhibited; conditions: 1000 nM, read-out: Percent Control
# ERBB2 = ERBB2 (Homo sapiens, UniProt P04626); assay: KINOMEscan: ERBB2
# Sequence of ERBB2 (P04626 23-1255): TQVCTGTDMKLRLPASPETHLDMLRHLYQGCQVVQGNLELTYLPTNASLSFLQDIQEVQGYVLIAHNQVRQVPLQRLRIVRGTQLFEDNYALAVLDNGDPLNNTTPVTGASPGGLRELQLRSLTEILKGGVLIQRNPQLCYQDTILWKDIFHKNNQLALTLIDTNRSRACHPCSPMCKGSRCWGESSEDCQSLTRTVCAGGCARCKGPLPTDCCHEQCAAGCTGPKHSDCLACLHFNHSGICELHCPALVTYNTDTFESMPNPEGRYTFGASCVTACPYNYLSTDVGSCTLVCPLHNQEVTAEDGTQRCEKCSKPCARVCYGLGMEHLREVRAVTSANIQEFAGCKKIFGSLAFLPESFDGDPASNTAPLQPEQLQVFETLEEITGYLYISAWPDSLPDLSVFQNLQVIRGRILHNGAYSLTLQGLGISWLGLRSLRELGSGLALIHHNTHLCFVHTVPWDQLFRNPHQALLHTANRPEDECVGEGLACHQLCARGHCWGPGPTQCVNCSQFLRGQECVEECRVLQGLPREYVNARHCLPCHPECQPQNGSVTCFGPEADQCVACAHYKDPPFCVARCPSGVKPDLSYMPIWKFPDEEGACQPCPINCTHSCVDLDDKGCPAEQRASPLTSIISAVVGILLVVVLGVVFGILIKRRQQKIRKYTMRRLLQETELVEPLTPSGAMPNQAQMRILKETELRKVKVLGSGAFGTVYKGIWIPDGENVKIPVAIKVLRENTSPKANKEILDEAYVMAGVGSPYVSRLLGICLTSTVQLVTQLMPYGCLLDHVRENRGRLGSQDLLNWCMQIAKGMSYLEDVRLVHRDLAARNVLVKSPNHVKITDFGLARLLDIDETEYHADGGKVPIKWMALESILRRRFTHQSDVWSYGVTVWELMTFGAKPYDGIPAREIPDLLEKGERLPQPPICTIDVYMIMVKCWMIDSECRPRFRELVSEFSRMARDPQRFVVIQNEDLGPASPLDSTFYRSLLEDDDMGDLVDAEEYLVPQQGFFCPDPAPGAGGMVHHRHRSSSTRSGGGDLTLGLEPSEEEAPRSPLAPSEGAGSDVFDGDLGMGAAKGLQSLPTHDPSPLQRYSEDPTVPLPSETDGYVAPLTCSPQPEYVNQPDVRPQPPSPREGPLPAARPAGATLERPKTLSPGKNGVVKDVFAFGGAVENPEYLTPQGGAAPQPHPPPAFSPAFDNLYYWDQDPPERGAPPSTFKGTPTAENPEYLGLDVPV
# Experimental: The structure and synthesis of VIP152 were recently described by Lücking et al.. (Fig. 1A); however, the selectivity of the molecule in cellular systems has yet to be explored. […] We also performed this experiment at 1000 nM, where CDK9 was inhibited at 99%. […] We found a strong concordance between our data and those of Lücking when comparing the most inhibited kinases. Potential off-target effects of VIP152 were next tested in vitro at a concentration of 10 µM for off-target activity against a broad range of receptors, transporters, ion channels, and enzymes (n = 138) using the Eurofins Diversity Panel.
# Kinomescan Kinase Profiling Assay
# Kinomescan Assay was performed at DiscoverRX and described in Fabian, et al. 2005, Nat.
# Biotechnol. In brief, kinases were produced and subsequently tagged with DNA for qPCR detection.
# Streptavidin-coated magnetic beads were bound to biotinylated kinase ligands to serve as a solid support.
# VIP152 was dissolved in DMSO and tested across a 10 serial threefold dilution set and compared to a test compound and a DMSO control. Kinases which were inhibited by VIP152 would not be bound to the solid-support resulting in decreased substrate for the qPCR reaction. Kinome map was produced via TreeSpot Analysis from DiscoverRX. […]
# NanoBRETTM Target Engagement Assay Protocol […]
# HEK293 cells were grown to 70-80% confluence appropriately prior to assay and subsequently trypsinized. Lipid:DNA complexes were prepared as follows. A 10µg/mL solution of DNA in Opti-MEM without serum consisting of the following ratios of carrier DNA and DNA encoding NanoLuc fusion were prepared.
# 9.0µg/mL of Transfection Carrier DNA, 1.0µg/mL of NanoLuc fusion vector DNA, and 1mL of Opti-MEM without phenol red. The solution was mixed thoroughly. Next, 30µL of FuGENE HD Transfection Reagent was added into each mL of DNA mixture to form the lipid:DNA complex and mixed by inversion 10 times followed by a 20 minute incubation at room temperature. […]
# PFCDPK1(P.falciparum) = PFCDPK1(P.falciparum) (Plasmodium falciparum, UniProt P62344); assay: DiscoverX KINOMEscan kinase profiling: PFCDPK1(P.falciparum); conditions: PFCDPK1(P.falciparum) (Entrez CDPK1); 100 nM; read-out: Percent Control
# GSK3B = GSK3B (Homo sapiens, UniProt P49841); assay: KINOMEscan: GSK3B; conditions: 1000 nM, read-out: Percent Control
# IRAK3 = IRAK3 (Homo sapiens, UniProt Q9Y616); assay: KINOMEscan: IRAK3; conditions: 1000 nM, read-out: Percent Control
# SRC = SRC (Homo sapiens, UniProt P12931); assay: KINOMEscan: SRC; conditions: 100 nM, read-out: Percent Control
# EPHA7 = EPHA7 (Homo sapiens, UniProt Q15375); assay: KINOMEscan: EPHA7; conditions: 1000 nM, read-out: Percent Control
# ALK = ALK (Homo sapiens, UniProt Q9UM73); assay: KINOMEscan: ALK; conditions: 1000 nM, read-out: Percent Control
# [3] = molecular target: RSK2(Kin.Dom.1-N-terminal) (Homo sapiens, UniProt P51812); assay: KINOMEscan: RSK2(Kin.Dom.1-N-terminal); conditions: 100 nM, read-out: Percent Control
# Sequence of RSK2(Kin.Dom.1-N-terminal) (P51812 1-397 limits assumed): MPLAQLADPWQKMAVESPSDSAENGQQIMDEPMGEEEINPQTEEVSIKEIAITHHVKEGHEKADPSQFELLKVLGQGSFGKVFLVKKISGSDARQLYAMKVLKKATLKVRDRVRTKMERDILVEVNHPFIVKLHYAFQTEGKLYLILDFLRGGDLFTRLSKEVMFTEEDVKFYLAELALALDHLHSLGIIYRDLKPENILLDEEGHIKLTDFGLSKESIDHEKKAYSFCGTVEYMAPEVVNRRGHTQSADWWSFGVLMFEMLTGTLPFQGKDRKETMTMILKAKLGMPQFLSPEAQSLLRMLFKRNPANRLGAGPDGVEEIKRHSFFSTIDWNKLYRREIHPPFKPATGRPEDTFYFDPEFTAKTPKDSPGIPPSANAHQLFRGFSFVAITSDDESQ
# Sequence of Neuropeptide Y Y2 (P49146 whole entry): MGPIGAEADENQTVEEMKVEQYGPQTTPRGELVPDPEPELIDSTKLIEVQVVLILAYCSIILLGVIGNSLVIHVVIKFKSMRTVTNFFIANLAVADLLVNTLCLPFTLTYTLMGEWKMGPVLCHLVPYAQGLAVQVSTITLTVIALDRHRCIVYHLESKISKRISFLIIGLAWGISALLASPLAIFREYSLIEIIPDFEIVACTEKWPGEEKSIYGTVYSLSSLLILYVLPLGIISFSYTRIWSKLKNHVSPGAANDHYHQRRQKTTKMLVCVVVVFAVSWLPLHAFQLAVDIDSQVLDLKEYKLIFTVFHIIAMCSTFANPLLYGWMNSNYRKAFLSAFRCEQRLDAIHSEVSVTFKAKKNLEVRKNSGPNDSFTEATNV
smiles,measurement,setting,value
COc1cc(F)ccc1-c1cc(Nc2cc(CS(C)(=N)=O)ccn2)ncc1F (stereo not drawn) [VIP152],inhibition at 10 µM,Neuropeptide Y Y2,3%
same,remaining binding at 0.1 µM,TLK1,98%
same,% Inh.,Thyroid Hormone,20%
same,remaining binding at 1 µM,BLK,76%
same,remaining binding at 1 µM,MST1,92%
same,remaining binding at 0.1 µM,ULK3,96%
same,remaining binding at 0.1 µM,RIOK1,100%
same,remaining binding at 0.1 µM,[1],100%
same,remaining binding at 1 µM,MAPKAPK2,81%
same,remaining binding at 1 µM,CSNK1D,94%
same,remaining binding at 1 µM,KIT(D816H),59%
same,remaining binding at 1 µM,MAK,84%
same,remaining binding at 1 µM,[2],80%
same,% Inh.,Rolipram,1%
same,remaining binding at 1 µM,EPHA1,78%
same,remaining binding at 0.1 µM,RET,100%
same,remaining binding at 1 µM,CSF1R-autoinhibited,73%
same,inhibition at 0.1 µM,"ERBB2; 100 nM, read-out: inhibition of ERBB2 relative to control",65%
same,remaining binding at 0.1 µM,"ERBB2; ERBB2, 100 nM, read-out: Percent Control",35%
same,remaining binding at 1 µM,"ERBB2; ERBB2, 1000 nM, read-out: Percent Control",100%
same,remaining binding at 0.1 µM,PFCDPK1(P.falciparum),97%
same,remaining binding at 1 µM,GSK3B,11%
same,remaining binding at 1 µM,IRAK3,52%
same,remaining binding at 0.1 µM,SRC,100%
same,remaining binding at 1 µM,EPHA7,100%
same,remaining binding at 1 µM,ALK,92%
same,remaining binding at 0.1 µM,[3],100%
